Holding throughout (assay type): cell-based
The subject of experiment [1] is PC3 cells. Nature of the experiment: PC3 prostate cancer cell proliferation (WST). The conditions noted are these: Homo sapiens, PC-3; 72 hours; read-out: IC50 PC3 Proliferation. The procedure: PC3 cells were obtained from the American Type Culture Collection (ATCC, Manassas, Va., Cat.# CRL-1435) Two thousand cells from the prostate cancer line PC3 were placed in 50 μL of complete RPMI 1640 media (Invitrogen, Carlsbad, Calif., Cat.#22400-105) with 10% fetal bovine serum (Invitrogen, Carlsbad, Calif., Cat.#10438-026) into each well of 96 well cell culture plates in a hexaplicate sampling pattern. A 50 μL aliquot of test compound (prepared from stock test compounds in DMSO diluted into media) was added to the appropriate well such that the final concentrations of test compound were 200, 40, 8, 1.6, 0.32, 0.064, 0.0128, 0.00256, and 0 μM and the final DMSO concentration was less than or equal to 0.2%.
The plates were incubated for 72 hours 37° C. in an atmosphere of 5% CO2. At the end of this time a 10 μL aliquot of WST solution (Roche Applied Science, Mannheim, Germany) was added into each of the wells. Cells were exposed to the WST solution for 4 hours. A SpectraMax Plus spectrophotometric plate reader (Molecular Devices, Sunnydale, Calif.) was then used to measure the optical density at 450 nm (OD450 nm). Sigmoidal curves were drawn for the dose responses and IC50 values were calculated using the software package GraphPad Prism4 (GraphPad Software, Inc., San Diego, Calif.).

Experiment [2] concerns pAKT serine 473 level in PC3 cells. Nature of the experiment: pAKT status in IGF-1 stimulated PC3 cells (Ser473 pAKT ELISA). The conditions noted are these: Homo sapiens, PC-3; IGF-1 stimulated PC3 cells; read-out: PC3 pAKT IC50. On the procedure:
PC3 cells were obtained from the American Type Culture Collection (ATCC, Manassas, Va., Cat.# CRL-1435). Two million cells from the prostate cancer line PC3 were placed into 6 cm culture dishes and allowed to grow in complete RPMI 1640 media (Invitrogen, Carlsbad, Calif., Cat.#22400-105) with 10% fetal bovine serum (Invitrogen, Carlsbad, Calif., Cat.#10438-026). After this time period the cells were serum starved for 5 hours followed by application of the test compound. Test compound was added as a DMSO (dimethyl sulfoxide) solution such that the final DMSO concentration in the cell media was less than or equal to 0.2% by volume After 30 minutes of exposure the growth factor stimulant, human IGF-1 (PeproTech, Inc., Rocky Hill, N.J., Cat.#100-11), was added to a final concentration of 0.1 μg/ml in each well. After 30 minutes of IGF-1 exposure, cells were removed from the media and cell lysates were prepared using RIPA Lysis buffer (Upstate, Lake Placid, N.Y., Cat.#20-188), keeping on ice. The pAKT serine 473 level was measured in duplicate samples of the cell lysates using commercially available assays such as the Pathscan® Sandwich ELISA kit for Ser473 pAKT (Cell Signaling, Danvers, Mass., Cat.#7160). A SpectraMax Plus spectrophotometric plate reader (Molecular Devices, Sunnydale, Calif.) was used to measure the optical density signal for pAKT at 450 nm (OD450 nm). The pAKT OD450 nm readings were normalized by total protein amount in the cell lysates determined by standard methods.
Concentrations of test compounds required to inhibit IGF stimulated pAKT levels to 50% of maximum levels in PC3 cells (termed DM50 for decreased maximum 50%) were calculated by inputting the dose responses in the software package GraphPad Prism4 (GraphPad Software, Inc., San Diego, Calif.).
By these methods a number of compounds of the invention were evaluated and the concentration needed to reduce the detectable pAKT to 50% of the maximal uninhibited signal was calculated. These values (in μMolar units) are listed in Table 8 under the column heading PC3 pAKT IC50 (μMolar).

The test system of experiment [3] is MCF7 breast cancer cells. Nature of the experiment: Mammosphere cancer stem cell inhibition assay. On the procedure:
A mammosphere cancer stem cell inhibition assay was set up using literature methods (T. M. Phillips et al. J. Natl. Cancer I. 2006, 98, 1777-1785, “Mammalian target of rapamycin contributes to the acquired apoptotic resistance of human mesothelioma multicellular spheroids”) using a subset of MCF7 breast cancer cells that posses the ability to evade anchorage independent apoptosis. Commercially available MCF7 breast cancer cells were cultured in MEM supplemented with 0.01 mg/mL of bovine insulin and 10% FBS at 37° C. in humidified atmosphere (5% CO2). Floating cells in the 2-day cultures were collected, washed, and resuspended in DMEM-F12 (50:50) supplemented with 0.4% BSA, 5 μg/mL bovine insulin, 20 ng/mL bFGF, and 10 ng/mL EGF. Cells were then passed through a […] sieve to remove any cell clusters and adjusted to a density of 10,000 cells/mL. Approximately 500 cells were plated in quadruplicate in a sterile poly-HEMA-treated 96-well plate. Cells were then treated with either control or test solutions consisting of the kinase inhibitor Lapatinib (1 μM), Cpd 28 (1 or 10 μM), Cpd 55 (1 or 10 μM), The numbers of mammospheres (clusters of cells numbering more than 4 or 5 per cluster) were then counted after 5-7 days.

Experiment [4] concerns AKT Ser473 phosphorylation in PC3 (prostate cancer) Cell Line. Nature of the experiment: pAKT Ser473 ELISA in PC3 cells stimulated by Bv8, VEGF, IGF. The conditions noted are these: Homo sapiens, PC-3, PC3, read-out: Concentration Required to Inhibit pAKT to Half-maximal Levels. The procedure:
(§1) This was followed by the addition of IGF, VEGF and Bv8 to 0.1 μg/mL, 0.1 μg/mL and 2.5 μg/mL respectively for another 30 minutes before harvesting the cells and making cell lysates with RIPA buffer keeping on ice, pAKT levels were measured in duplicate samples with Cell Signaling's Ser473 pAKT ELISA kit. Optical density plate readings of pAKT levels were made at 450 nm (OD450 nm) and were normalized by total protein amount of the cell lysates. The dose of compound at which pAKT levels are reduced to 50% of the non-treatment level was calculated using GraphPad Prism4 software and is listed in Tables 4 and 5 below.
A general note: An ELISA detects its analyte on a solid surface through an enzyme-linked reagent.

For experiment [5], the system named is AKT Ser473 phosphorylation in renal cell carcinoma (786-O) Cell Line. Nature of the experiment: pAKT Ser473 ELISA in 786-O cells stimulated by Bv8, VEGF, IGF. The conditions noted are these: Homo sapiens, 786-0, 786-O, read-out: Concentration Required to Inhibit pAKT to Half-maximal Levels. On the procedure:
as §1

Experiment [6] concerns 786-0 cells. Nature of the experiment: Apoptosis in 786-0 cells (Annexin V / PI flow cytometry). Also on record: unit not given here. The note with it: 200 ng/mL. On the procedure: In order to evaluate the mechanism of action of these compounds, 786-0 cell cultures were treated with Cpd 9 or Cpd 28 at different concentrations overnight and then analyzed for apoptotic induction. The cells were stained using standard methods with Annexin V and/or Propedium iodine (PI) at room temperature for 15 minutes. Apoptotic cells at early (Annexin V positive) or late stage (both Annexin V and PI positive) were detected by Flow Cytometry.
A general note: In flow cytometry, cells or beads pass a laser one at a time.

Where [7] appears, read: 1 μM, separate experiment, control 32±6.
[8] abbreviates: 10 μM, separate experiment, control 32±6.

Like-named read-outs stand apart in the source and are kept apart here. Starred links: 1 amine or outer side, 2 acyl side, 3 side chain; linkers in the order of their positions; H or OH if unused. Positions of bridges follow the written chain, without caps; N, C: chain ends. Non-standard residues stand in square brackets, D forms with d. Residues, ends and D or L forms follow the SMILES beside them. Chains are numbered I, II in the order given. Actinocin(9to1) = Cc1c2oc3c(C)ccc(C(=O)[*:1])c3nc-2c(C(=O)[*:2])c(N)c1=O; NMeV = CN[C@H](C(=O)O)C(C)C; Sar = CNCC(=O)O

For `CS(=O)(=O)c1ccc(-c2csc3c(=O)cc(N4CCOCC4)oc23)cc1` [Compound 13], the IC50 in experiment [1] came to 15.3 µM; in experiment [2], 5.29 µM.

In the case of `O=C(Nc1ccc(-c2csc3c(=O)cc(N4CCOCC4)oc23)cc1)c1cccnc1` [Compound 55], the IC50 in experiment [1] was in the range of 1.05 to 1.5 µM. Further, the “inhibition of mammosphere production versus control” value in experiment [3] (1 μM, first experiment) is given as “approximately 60%”; in experiment [3] (10 μM, first experiment) it was roughly 86%. Further, the number of mammospheres in experiment [3] (1 μM, first experiment, control 38±4) is 16±2 mammospheres; in experiment [3] (10 μM, first experiment, control 38±4), 5±1 mammospheres.

Turning to `CCOC(=O)c1ccc(-c2csc3c(=O)cc(N4CCOCC4)oc23)cc1` [Compound 25], the IC50 in experiment [4] (stimulant Bv8) was 0.941 µM; in experiment [4] (stimulant IGF), 2.12 µM; in experiment [4] (stimulant PBS) it was 0.564 µM; in experiment [4] (stimulant VEGF), 0.332 µM; in experiment [1], 1.23 to 3.14 µM; in experiment [5] (stimulant Bv8) it was 0.699 µM. Also, the IC50 was determined as 4.39 µM in experiment [5] (stimulant IGF), 0.918 µM in experiment [5] (stimulant PBS) and 0.498 µM in experiment [5] (stimulant VEGF). Moreover, the “inhibition of mammosphere production versus control” value is reported as “approximately 69%” in experiment [3] (1 μM, separate experiment) and “approximately 82%” in experiment [3] (10 μM, separate experiment). The number of mammospheres worked out at 12±3 mammospheres in experiment [3] (setting [7]) and 7±2 mammospheres in experiment [3] (setting [8]).

As to `CN1CCN(c2ncc(-c3csc4c(=O)cc(N5CCOCC5)oc34)cn2)CC1` [Compound 43], the IC50 in experiment [1] was determined as 9.35 µM. Moreover, the “inhibition of mammosphere production versus control” value in experiment [3] (1 μM, separate experiment) is roughly 53%; in experiment [3] (10 μM, separate experiment), roughly 58%. Besides, the number of mammospheres in experiment [3] (setting [7]) is 18±6 mammospheres; in experiment [3] (setting [8]) it was 16±6 mammospheres.

In the case of `Nc1cccc(-c2csc3c(=O)cc(N4CCOCC4)oc23)c1` [Compound 11], the IC50 in experiment [1] was 6.29 µM; in experiment [2] it was 6.32 µM.

For `COc1ccc(C#Cc2csc3c(=O)cc(N4CCOCC4)oc23)cc1` [Compound 38], the IC50 in experiment [1] was found to be 8.42 µM; in experiment [2] it was 0.363 µM.

With `Cc1c2oc3c(C)ccc(C(=O)N[C@@H]4C(=O)N[C@H](C(C)C)C(=O)N5CCC[C@H]5C(=O)N(C)CC(=O)N(C)[C@@H](C(C)C)C(=O)O[C@@H]4C)c3nc-2c(C(=O)N[C@@H]2C(=O)N[C@H](C(C)C)C(=O)N3CCC[C@H]3C(=O)N(C)CC(=O)N(C)[C@@H](C(C)C)C(=O)O[C@@H]2C)c(N)c1=O` [Actinomycin D, reference compound] (I: T[dV]P[Sar][NMeV] / II: T[dV]P[Sar][NMeV]; ester I:1-I:C, II:1-II:C; linker I:N-II:N via Actinocin(9to1)), in experiment [6], the “Early stage apoptotic cells” value is 16.93, the “Late stage apoptotic cells” value came to 12.63 and the “Total Apoptotic Cells” value is given as 29.56.

For the origin of these results see patent US9981983B2, “Thienopyranones as kinase inhibitors” (SignalRx Pharmaceuticals, Inc., priority 2008, dated 2018).
